Earlier results, collected in PubChem BioAssay AID1259409 (Chemical Carcinogenesis Research Information System (CCRIS), 2018).

Test system: rodent chemically induced tumor inhibition, incidence and multiplicity
Assay: CCRIS tumor inhibitor studies
Settings: Carcinogen: N-NITROSOBIS(2-OXYPROPYL)AMINE, 60599-38-4, Route [Inhibitor]: ORAL, Species: HAMSTER, Promoter: NONE USED

CC1=C(/C=C/C(C)=C/C=C/C(C)=C/C(=O)NCCO)C(C)(C)CCC1
tumour outcome (control, treated, inhibition, significance) (Dose [Inhibitor]: 0.05, 0.1 OR 0.2 MILLIMOLAR/KG DIET FOR 32 WK STARTING 1 WK AFTER THE CARCINOGEN DOSE (STUDY DURATION: 33 WK), Strain/Sex: SYRIAN/FEMALE, Target Tissue: Type of Lesion: COMMON DUCT: ADENOMA, Dose [Carcinogen]: 40 MG/KG ONCE): 4/10 (40%), 19/29 (66%), -65%, not significant
tumour outcome (control, treated, inhibition, significance) (Dose [Inhibitor]: 0.05, 0.1 OR 0.2 MILLIMOLAR/KG DIET FOR 32 WK STARTING 1 WK AFTER THE CARCINOGEN DOSE (STUDY DURATION: 33 WK), Strain/Sex: SYRIAN/FEMALE, Target Tissue: Type of Lesion: GALL BLADDER: ADENOMA, Dose [Carcinogen]: 40 MG/KG ONCE): 6/10 (60%), 17/29 (59%), 2%, not significant
tumour outcome (control, treated, inhibition, significance) (Dose [Inhibitor]: 0.05, 0.1 OR 0.2 MILLIMOLAR/KG DIET FOR 32 WK STARTING 1 WK AFTER THE CARCINOGEN DOSE (STUDY DURATION: 33 WK), Strain/Sex: SYRIAN/FEMALE, Target Tissue: Type of Lesion: LUNG: ADENOMA, Dose [Carcinogen]: 40 MG/KG ONCE): 3/10 (30%), 4/29 (14%), 53%, p<0.025
tumour outcome (control, treated, inhibition, significance) (Dose [Inhibitor]: 0.05, 0.1 OR 0.2 MILLIMOLAR/KG DIET FOR 32 WK STARTING 1 WK AFTER THE CARCINOGEN DOSE (STUDY DURATION: 33 WK), Strain/Sex: SYRIAN/FEMALE, Target Tissue: Type of Lesion: PANCREAS: ADENOMA, Dose [Carcinogen]: 40 MG/KG ONCE): 10/10 (100%), 29/29 (100%), 0%, not significant
tumour outcome (control, treated, inhibition, significance) (Dose [Inhibitor]: 0.05, 0.1 OR 0.2 MILLIMOLAR/KG DIET FOR 32 WK STARTING 1 WK AFTER THE CARCINOGEN DOSE (STUDY DURATION: 33 WK), Strain/Sex: SYRIAN/FEMALE, Target Tissue: Type of Lesion: PANCREAS: CARCINOMA, Dose [Carcinogen]: 40 MG/KG ONCE): 4/10 (40%), 15/29 (52%), -30%, not significant
tumour outcome (control, treated, inhibition, significance) (Dose [Inhibitor]: 0.05, 0.1 OR 0.2 MILLIMOLAR/KG DIET FOR 32 WK STARTING 1 WK AFTER THE CARCINOGEN DOSE (STUDY DURATION: 33 WK), Strain/Sex: SYRIAN/MALE, Target Tissue: Type of Lesion: COMMON DUCT: ADENOMA, Dose [Carcinogen]: 40 MG/KG ONCE): 4/12 (33%), 23/29 (79%), -139%, not significant
tumour outcome (control, treated, inhibition, significance) (Dose [Inhibitor]: 0.05, 0.1 OR 0.2 MILLIMOLAR/KG DIET FOR 32 WK STARTING 1 WK AFTER THE CARCINOGEN DOSE (STUDY DURATION: 33 WK), Strain/Sex: SYRIAN/MALE, Target Tissue: Type of Lesion: GALL BLADDER: ADENOMA, Dose [Carcinogen]: 40 MG/KG ONCE): 3/12 (25%), 17/29 (59%), -136%, not significant
tumour outcome (control, treated, inhibition, significance) (Dose [Inhibitor]: 0.05, 0.1 OR 0.2 MILLIMOLAR/KG DIET FOR 32 WK STARTING 1 WK AFTER THE CARCINOGEN DOSE (STUDY DURATION: 33 WK), Strain/Sex: SYRIAN/MALE, Target Tissue: Type of Lesion: LIVER: ADENOMA, Dose [Carcinogen]: 40 MG/KG ONCE): 6/12 (50%), 8/29 (28%), 44%, not significant
tumour outcome (control, treated, inhibition, significance) (Dose [Inhibitor]: 0.05, 0.1 OR 0.2 MILLIMOLAR/KG DIET FOR 32 WK STARTING 1 WK AFTER THE CARCINOGEN DOSE (STUDY DURATION: 33 WK), Strain/Sex: SYRIAN/MALE, Target Tissue: Type of Lesion: LUNG: ADENOMA, Dose [Carcinogen]: 40 MG/KG ONCE): 1/12 (8%), 5/29 (17%), -113%, not significant
tumour outcome (control, treated, inhibition, significance) (Dose [Inhibitor]: 0.05, 0.1 OR 0.2 MILLIMOLAR/KG DIET FOR 32 WK STARTING 1 WK AFTER THE CARCINOGEN DOSE (STUDY DURATION: 33 WK), Strain/Sex: SYRIAN/MALE, Target Tissue: Type of Lesion: PANCREAS: ADENOMA, Dose [Carcinogen]: 40 MG/KG ONCE): 12/12 (100%), 29/29 (100%), 0%, not significant
tumour outcome (control, treated, inhibition, significance) (Dose [Inhibitor]: 0.05, 0.1 OR 0.2 MILLIMOLAR/KG DIET FOR 32 WK STARTING 1 WK AFTER THE CARCINOGEN DOSE (STUDY DURATION: 33 WK), Strain/Sex: SYRIAN/MALE, Target Tissue: Type of Lesion: PANCREAS: CARCINOMA, Dose [Carcinogen]: 40 MG/KG ONCE): 6/12 (50%), 10/29 (34%), 32%, not significant
tumour outcome (control, treated, inhibition, significance) (Dose [Inhibitor]: 0.05, 0.1 OR 0.2 MM/KG DIET FOR 32 WK STARTING 1 WK AFTER THE CARCINOGEN DOSE (STUDY DURATION: 33 WK), Strain/Sex: SYRIAN/FEMALE, Target Tissue: Type of Lesion: PANCREAS: ADENOCARCINOMA, Dose [Carcinogen]: 40 MG/KG, ONCE, ONE WK PRIOR TO START OF AGENT TREATMENT): 2/10 (20%), 2/29 (7%), 65%, not significant
